# According to ChEMBL document CHEMBL4665622, “Repurposing ibuprofen to control Staphylococcus aureus biofilms” (2019):
# Columns and labels:
# Cell membrane [1] = assay: Disruption of cytoplasmic membrane integrity in Staphylococcus aureus CECT 976 assessed as potassium ion release at MIC incubated for 1 hr by flame emission and atomic absorption spectroscopy (reference value: 0 mg/L); assay type: subcellular
# Cell membrane [2] = assay: Effect on surface tension of Staphylococcus aureus CECT 976 assessed as Lewis acid-base at MIC incubated for 1 hr (reference value: 10.5 +/- 1.3 mJ/m2); assay type: subcellular
# Staphylococcus aureus [3] = assay: Bactericidal activity against Staphylococcus aureus RN4220 assessed as reduction in bacterial growth incubated for 24 hrs by broth microdilution method; assay type: functional
# Staphylococcus aureus [4] = assay: Inhibition of cell adhesion in Staphylococcus aureus CECT 976 assessed as decrease in CFU at 10 times of MIC incubated upto 24 hrs relative to control; assay type: functional; conditions: time hrs <=24
# Staphylococcus aureus [5] = assay: Inhibition of cell adhesion in Staphylococcus aureus CECT 976 assessed as decrease in biomass content at upto 10 times of MIC incubated upto 24 hrs relative to control; assay type: functional; conditions: time hrs <=24
# Cell membrane [6] = assay: Effect on surface tension of Staphylococcus aureus CECT 976 assessed as Lifshitz-van der Waals at MIC incubated for 1 hr (reference value: 40.5 +/- 0.0 mJ/m2); assay type: subcellular
# Cell membrane [7] = assay: Destabilization of cytoplasmic membrane integrity in Staphylococcus aureus CECT 976 at 0.5 times of MIC incubated for 1 hr by epifluorescence microscope analysis (reference value: 10.6 %); assay type: subcellular
# Staphylococcus aureus [8] = assay: Bactericidal activity against Staphylococcus aureus XU212 assessed as reduction in bacterial growth incubated for 24 hrs by broth microdilution method; assay type: functional
# Cell membrane [9] = assay: Effect on surface tension of Staphylococcus aureus CECT 976 assessed as hydrophobicity at 0.25 times of MIC incubated for 1 hr (reference value: 34.8 +/- 1.3 mJ/m2); assay type: subcellular
# Staphylococcus aureus [10] = assay: Antibiofilm activity against Staphylococcus aureus XU212 preform-matured biofilm assessed as increase in biofilm removal at 5 and 10 times of MIC incubated upto 24 hrs relative to control; assay type: functional; conditions: time hrs <=24
# Staphylococcus aureus [11] = assay: Antibiofilm activity against Staphylococcus aureus RN4220 preform-matured biofilm assessed as increase in biofilm removal at 5 and 10 times of MIC incubated upto 24 hrs relative to control; assay type: functional; conditions: time hrs <=24
# Staphylococcus aureus [12] = assay: Antibiofilm activity against Staphylococcus aureus CECT 976 preform-matured biofilm assessed as increase in biofilm removal at upto 10 times of MIC incubated for 1 hr; assay type: functional, organism-based
# Staphylococcus aureus [13] = assay: Antibiofilm activity against Staphylococcus aureus SA1199B preform-matured biofilm assessed as increase in biofilm removal at MIC incubated upto 24 hrs relative to control; assay type: functional; conditions: time hrs <=24
# Cell membrane [14] = assay: Effect on surface tension of Staphylococcus aureus CECT 976 assessed as electron acceptor component at 0.25 times of MIC incubated for 1 hr (reference value: 0.5 +/- 0.1 mJ/m2); assay type: subcellular
# Staphylococcus aureus [15] = assay: Antibiofilm activity against Staphylococcus aureus RN4220 preform-matured biofilm assessed as increase in biofilm removal at MIC incubated upto 24 hrs relative to control; assay type: functional; conditions: time hrs <=24
# [16] = Antibacterial activity against Paracoccus yeei assessed as reduction in bacterial growth at pH 5 incubated for 24 hrs by broth microdilution method; assay type: functional
# Cell membrane [17] = assay: Destabilization of cytoplasmic membrane integrity in Staphylococcus aureus CECT 976 at MIC incubated for 1 hr by epifluorescence microscope analysis (reference value: 10.6 %); assay type: subcellular
# Staphylococcus aureus [18] = assay: Antibiofilm activity against Staphylococcus aureus SA1199B preform-matured biofilm assessed as increase in biofilm removal at 5 and 10 times of MIC incubated upto 24 hrs relative to control; assay type: functional; conditions: time hrs <=24
# Staphylococcus aureus [19] = assay: Antibiofilm activity against Staphylococcus aureus RN4220 preform-matured biofilm assessed as increase in biofilm inactivation upto 10 times of MIC incubated upto 24 hrs relative to control; assay type: functional; conditions: time hrs <=24
# Staphylococcus aureus [20] = assay: Antibiofilm activity against Staphylococcus aureus XU212 preform-matured biofilm assessed as increase in biofilm inactivation upto 10 times of MIC incubated upto 24 hrs relative to control; assay type: functional; conditions: time hrs <=24
# Staphylococcus aureus [21] = assay: Inhibition of cell adhesion in Staphylococcus aureus CECT 976 assessed as decrease in biomass content incubated upto 24 hrs; assay type: functional, organism-based; conditions: time hrs <=24
# Staphylococcus aureus [22] = assay: Antibiofilm activity against Staphylococcus aureus CECT 976 preform-matured biofilm assessed as increase in biofilm removal at upto 10 times of MIC incubated for 24 hrs; assay type: functional, organism-based; conditions: time 1.0 hrs
# Staphylococcus aureus [23] = assay: Antibiofilm activity against Staphylococcus aureus SA1199B preform-matured biofilm assessed as reduction in CFU at 5 and 10 times of MIC incubated upto 24 hrs relative to control; assay type: functional; design: scale not given: the % may be the effect or the level left; conditions: time hrs <=24
# Cell membrane [24] = assay: Destabilization of cytoplasmic membrane integrity in Staphylococcus aureus CECT 976 at 0.25 times of MIC incubated for 1 hr by epifluorescence microscope analysis (reference value: 10.6 %); assay type: subcellular
# Staphylococcus aureus [25] = assay: Antibacterial activity against Staphylococcus aureus XU212 assessed as reduction in bacterial growth incubated for 24 hrs by broth microdilution method; assay type: functional
# Staphylococcus aureus [26] = assay: Antibacterial activity against Staphylococcus aureus SA1199B assessed as reduction in bacterial growth incubated for 24 hrs by broth microdilution method; assay type: functional
# Cell membrane [27] = assay: Effect on surface tension of Staphylococcus aureus CECT 976 assessed as electron donor component at 0.5 times of MIC incubated for 1 hr (reference value: 55 +/- 0.9 mJ/m2); assay type: subcellular
# Staphylococcus aureus [28] = assay: Antibacterial activity against Staphylococcus aureus assessed as reduction in bacterial growth at pH 5 incubated for 24 hrs by broth microdilution method; assay type: functional
# Staphylococcus aureus [29] = assay: Antibacterial activity against Staphylococcus aureus assessed as reduction in bacterial growth at pH 7 incubated for 24 hrs by broth microdilution method; assay type: functional
# Staphylococcus aureus [30] = assay: Antibacterial activity against Staphylococcus aureus assessed as reduction in bacterial growth at pH 6 incubated for 24 hrs by broth microdilution method; assay type: functional
# Cell membrane [31] = assay: Effect on surface tension of Staphylococcus aureus CECT 976 assessed as hydrophobicity at 0.5 times of MIC incubated for 1 hr (reference value: 34.8 +/- 1.3 mJ/m2); assay type: subcellular
compound,measurement,setting,value
CC(C)Cc1ccc(C(C)C(=O)O)cc1 (stereo unspecified) [IBUPROFEN],Activity,Cell membrane [1],0.49 mg/L
same,Activity,Cell membrane [2],12.5 mJ/m2
same,MBC,Staphylococcus aureus [3],> 2000 µg/mL
same,inhibition (INH),Staphylococcus aureus [4],100%
same,inhibition (INH),Staphylococcus aureus [5],<=38.5%
same,Activity,Cell membrane [6],38 mJ/m2
same,Activity,Cell membrane [7],99.8%
same,MBC,Staphylococcus aureus [8],1600 µg/mL
same,Activity,Cell membrane [9],27.3 mJ/m2
same,Activity,Staphylococcus aureus [10],0%
same,Activity,Staphylococcus aureus [11],0%
same,inhibition,Staphylococcus aureus [12],Dose-dependent effect
same,Activity,Staphylococcus aureus [13],<=14%
same,Activity,Cell membrane [14],0.7 mJ/m2
same,Activity,Staphylococcus aureus [15],<=14%
same,MIC,[16],1250 µg/mL
same,Activity,Cell membrane [17],97.9%
same,Activity,Staphylococcus aureus [18],0%
same,Activity,Staphylococcus aureus [19],<=55%
same,Activity,Staphylococcus aureus [20],<=55%
same,inhibition,Staphylococcus aureus [21],Dose-dependent effect
same,inhibition,Staphylococcus aureus [22],Dose-dependent effect
same,Activity,Staphylococcus aureus [23],100%
same,Activity,Cell membrane [24],99.1%
same,MIC,Staphylococcus aureus [25],1600 µg/mL
same,MIC,Staphylococcus aureus [26],1000 µg/mL
same,Activity,Cell membrane [27],49.7 mJ/m2
same,MIC,Staphylococcus aureus [28],40 µg/mL
same,MIC,Staphylococcus aureus [29],> 600 µg/mL
same,MIC,Staphylococcus aureus [30],350 µg/mL
same,Activity,Cell membrane [31],27.9 mJ/m2
